What was measured:
BRD4 (BD1) = target: T1, BRD4 (BD1) (Homo sapiens, UniProt O60885); test: Binding assay BRD4/acetylated peptide H4 (TR-FRET protein-protein interaction assay)
T1 construct: with relatively long constructs also being possible, preferably amino acids 44-168; made in house; host or cells: E. coli
In short: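 Displacement of biotin-Ac-H4 peptide from His6-tagged BRD4(BD1), final usually 10 nM, read as Eu-streptavidin to anti-His-XL665 TR-FRET (665/620 nm). Compounds tested at 11 doses up to 20 μM in duplicate, pH 7.5 HEPES, 22 °C then 4 °C incubation; IC50 by 4-parameter regression.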

MOLM-13 cells = test: Cell proliferation assay (alamarBlue), MOLM-13; format: cell-based; conditions: Homo sapiens, 96 hours incubation, inhibition of cell proliferation
In short: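 IC50 = concentration giving 50% growth inhibition relative to buffer-treated cells, after subtracting baseline fluorescence taken before dosing. Compound applied at 1E-5 to 1E-8 M for 96 h at 37 °C in RPMI1640 with 10% FCS; alamarBlue signal at 530/590 nm.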

B16F10 cells = test: Cell proliferation assay (alamarBlue), B16F10; format: cell-based; conditions: Mus musculus, B16-F10, 96 hours incubation, inhibition of cell proliferation
Procedure: (§1) In accordance with the invention, the capability of the substances to inhibit cell proliferation was determined Cell viability was determined using the alamarBlue® reagent (Invitrogen) in a Victor X3 Multilabel Reader (Perkin Elmer). The excitation wavelength was 530 nm and the emission wavelenth […].
The B16F10 cells (ATCC, CRL-6475) were sown at a concentration of 300-500 cells/well in 100 μl growth medium (DMEM with phenol red, 10% FCS) on 96-well microtitre plates.
(§2) After an overnight incubation at 37° C., the fluorescence values (CI values) were determined. The plates were then treated with various substance dilutions (1E-5 M, 3E-6 M, 1E-6M, 3E-7 M, 1E-7 M, 3E-8 M, 1E-8 M) and incubated at 37° C. for 72 (MV4-11-, LOX-IMVI cells), 96 (MOLM-13-, B16F10-, MDA-MB-431-, Caov-3 cells), 120 (MOLP-8-, KMS-12-PE cells) or 168 (LAPC-4 cells) hours. The fluorescence values (CO values) were then determined. For the data analysis, the CI values were subtracted from the CO values and the results were compared between cells treated with different dilutions of the substance or with buffer solution only. These were used to calculate the IC 50 values (substance concentration required for 50% inhibition of cell proliferation).

LAPC-4 cells = test: Cell proliferation assay (alamarBlue), LAPC-4; format: cell-based; conditions: Homo sapiens, LAPC4; inhibition of cell proliferation, LAPC-4 (prostate cancer), 1 nM methyltrienolone, 168 hours
Procedure: as §1
The LAPC-4 cells (ATCC, PTA-1441TM) were sown at a concentration of 4000 cells/well in 100 μl growth medium (RPMI1640, 2 mM L-glutamine, 10% cFCS) on 96-well microtitre plates. A day later, the LAPC-4 cells were treated with 1 nM methyltrienolone and various substance dilutions.
as §2

MDA-MB-231 cells = test: Cell proliferation assay (alamarBlue), MDA-MB-231; format: cell-based; conditions: Homo sapiens; inhibition of cell proliferation, MDA-MB-231 (breast carcinoma), 96 hours
Procedure: as §1
The MDA-MB-231 cells (DSMZ, ACC 732) were sown at a concentration of 4000 cells/well in 100 μl growth medium (DMEM/Ham's F12 medium, 10% FCS) on 96-well microtitre plates. The Caov-3 cells (ATCC, HTB-75) were sown at a concentration of 2000 cells/well in 100 μl growth medium (MEM Earle's medium, 10% FCS) on 96-well microtitre plates.
as §2

MV4-11 cells = test: Cell proliferation assay (alamarBlue), MV4-11; format: cell-based; conditions: Homo sapiens, 72 hours incubation, inhibition of cell proliferation
In short: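 Cells seeded at 5000/well in RPMI1640 + 10% FCS, incubated overnight at 37° C, then treated with compound (1E-5 to 1E-8 M) for 72 h at 37° C. Viability by alamarBlue fluorescence (ex 530/em 590 nm); pre-treatment readings subtracted, IC50 derived versus buffer-treated cells.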

LOX-IMVI cells = test: Cell proliferation assay (alamarBlue), LOX-IMVI; format: cell-based; conditions: Homo sapiens, 72 hours incubation, inhibition of cell proliferation
In short: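 alamarBlue fluorescence (530 nm excitation, 590 nm emission) measured before dosing and after 72 h at 37° C exposure to 1E-5–1E-8 M compound; 1000 cells/well plated in RPMI1640/10% FCS the night before. IC50 from baseline-corrected signal relative to buffer-treated wells.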

MOLP-8 cells = test: Cell proliferation assay (alamarBlue), MOLP-8; format: cell-based; conditions: Homo sapiens, 120 hours incubation, inhibition of cell proliferation
In short: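 MOLP-8 cells in RPMI1640 with 20% FCS, 4000 cells/well, treated overnight after seeding with substance at 1E-5 to 1E-8 M for 120 h at 37° C. Viability read by alamarBlue fluorescence (ex 530, em 590); pre-treatment values subtracted, compared with buffer-only cells to derive IC50.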

KMS-12-PE cells = test: Cell proliferation assay (alamarBlue), KMS-12-PE; format: cell-based; conditions: Homo sapiens, 120 hours incubation, inhibition of cell proliferation
In short: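 KMS-12-PE myeloma cells in RPMI1640 with 20% FCS were exposed to compound (1E-5 to 1E-8 M) for 120 h at 37° C. AlamarBlue fluorescence (ex 530, em 590 nm) read before and after treatment; the difference versus buffer-treated cells gave IC50.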

Caov-3 cells = test: Cell proliferation assay (alamarBlue), Caov-3; format: cell-based; conditions: Homo sapiens; inhibition of cell proliferation, Caov-3 (ovarian carcinoma), 96 hours
In short: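 Caov-3 (MEM Earle's, 10% FCS, 2000 cells/well) and MDA-MB-231 (DMEM/Ham's F12, 10% FCS, 4000 cells/well) were treated after overnight attachment with 1E-5 to 1E-8 M compound. Caov-3 exposure was 96 h. alamarBlue fluorescence (ex 530, em 590 nm) was read after background subtraction of day-0 values, and IC50 calculated versus buffer-treated cells.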

SMILES	IC50 (BRD4 (BD1))	IC50 (MOLM-13 cells)	IC50 (B16F10 cells)	IC50 (LAPC-4 cells)	IC50 (MDA-MB-231 cells)	IC50 (MV4-11 cells)	IC50 (LOX-IMVI cells)	IC50 (MOLP-8 cells)	IC50 (KMS-12-PE cells)	IC50 (Caov-3 cells)
CNC(=O)N1N=C(c2ccc(Cl)cc2)c2cc(OC(F)(F)F)ccc2CC1C (racemic) [Example 1, (±)-1-(4-Chlorophenyl)-N,4-dimethyl-8-(trifluoromethoxy)-4,5-dihydro-3H-2,3-benzodiazepine-3-carboxamide]	190 nM	1260 nM	690 nM	600 nM	900 nM	–	–	–	–	–
CNC(=O)N1N=C(c2ccc(-c3ccc(C(=O)O)s3)cc2)c2cc(OC)c(OC)cc2CC1C (racemic) [Example 5, (±)-5-(4-{7,8-dimethoxy-4-methyl-3-[(methylamino)carbonyl]-4,5-dihydro-3H-2,3-benzodiazepin-1-yl}phenyl)thiophene-2-carboxylic acid]	30 nM	820 nM	690 nM	270 nM	1350 nM	–	–	–	–	–
CNC(=O)N1N=C(c2ccc(Cl)cc2)c2cc(-c3ccncc3)ccc2CC1C (racemic) [Example 8, (±)-1-(4-Chlorophenyl)-N,4-dimethyl-8-(pyridin-4-yl)-4,5-dihydro-3H-2,3-benzodiazepine-3-carboxamide]	90 nM	380 nM	190 nM	180 nM	280 nM	–	–	–	–	–
CNC(=O)N1N=C(c2ccc(Cl)cc2)c2cc(OC(F)(F)F)c(Cl)cc2CC1C (racemic) [Example 15]	870 nM	3450 nM	–	–	6230 nM	–	–	–	–	–
CNC(=O)N1N=C(c2ccc(Cl)cc2)c2cc(N3CCOCC3)ccc2C[C@@H]1C [Example 11.1, (4S)-1-(4-Chlorophenyl)-N,4-dimethyl-8-(morpholin-4-yl)-4,5-dihydro-3H-2,3-benzodiazepine-3-carboxamide]	80 nM	570 nM	–	310 nM	1110 nM	–	–	–	–	–
CNC(=O)N1N=C(c2ccc(Cl)cc2)c2cc(N3CCOCC3)ccc2C[C@H]1C [Example 11.2, (4R)-1-(4-Chlorophenyl)-N,4-dimethyl-8-(morpholin-4-yl)-4,5-dihydro-3H-2,3-benzodiazepine-3-carboxamide]	2510 nM	7740 nM	–	–	10000 nM	–	–	–	–	–
CNC(=O)N1N=C(c2ccc(-n3nc(C)cc3C)cc2)c2cc(OC)ccc2C[C@@H]1C [Example 16, (4S)-1-[4-(3,5-Dimethyl-1H-pyrazol-1-yl)phenyl]-8-methoxy-N,4-dimethyl-4,5-dihydro-3H-2,3-benzodiazepine-3-carboxamide]	50 nM	220 nM	–	110 nM	470 nM	270 nM	640 nM	290 nM	250 nM	370 nM
CNC(=O)N1N=C(c2ccc(N3CCOCC3)cc2)c2cc(OC)ccc2C[C@@H]1C [Example 17, (4S)-8-Methoxy-N,4-dimethyl-1-[4-(morpholin-4-yl)phenyl]-4,5-dihydro-3H-2,3-benzodiazepine-3-carboxamide]	40 nM	170 nM	–	100 nM	210 nM	130 nM	300 nM	110 nM	110 nM	220 nM
CNC(=O)N1N=C(c2ccc(-c3cnoc3)cc2)c2cc(OC)ccc2C[C@@H]1C [Example 18, (4S)-1-[4-(4-Isoxazolyl)phenyl]-8-methoxy-N,4-dimethyl-4,5-dihydro-3H-2,3-benzodiazepine-3-carboxamide]	160 nM	250 nM	–	–	280 nM	300 nM	760 nM	340 nM	350 nM	480 nM
CNC(=O)N1N=C(c2ccc(-c3ccnn3C)cc2)c2cc(OC)ccc2C[C@@H]1C [Example 19, (4S)-8-methoxy-N,4-dimethyl-1-[4-(1-methyl-1H-pyrazol-5-yl)phenyl]-4,5-dihydro-3H-2,3-benzodiazepine-3-carboxamide]	40 nM	170 nM	–	110 nM	–	270 nM	650 nM	270 nM	270 nM	410 nM
CNC(=O)N1N=C(c2ccc(-c3c(C)noc3C)cc2)c2cc(OC)ccc2C[C@@H]1C [Example 20, (4S)-1-[4-(3,5-dimethyl-4-isoxazolyl)phenyl]-8-methoxy-N,4-dimethyl-4,5-dihydro-3H-2,3-benzodiazepine-3-carboxamide]	70 nM	190 nM	–	120 nM	220 nM	140 nM	330 nM	120 nM	110 nM	240 nM
CNC(=O)N1N=C(c2ccc(-c3ccn[nH]3)cc2)c2cc(OC)ccc2C[C@@H]1C [Example 23, (4S)-8-methoxy-N,4-dimethyl-1-[4-(1H-pyrazol-5-yl)phenyl]-4,5-dihydro-3H-2,3-benzodiazepine-3-carboxamide]	90 nM	270 nM	–	190 nM	–	–	–	–	–	–
CNC(=O)N1N=C(c2ccc(-n3nc(COC)cc3C)cc2)c2cc(OC)ccc2C[C@@H]1C [Example 26, (4S)-8-methoxy-1-{4-[3-(methoxymethyl)-5-methyl-1H-pyrazol-1-yl]phenyl}-N,4-dimethyl-4,5-dihydro-3H-2,3-benzodiazepine-3-carboxamide]	40 nM	430 nM	–	130 nM	–	–	–	–	–	–
CNC(=O)N1N=C(c2ccc(-n3nc(C)cc3COC)cc2)c2cc(OC)ccc2C[C@@H]1C [Example 27, (4S)-8-methoxy-1-{4-[5-(methoxymethyl)-3-methyl-1H-pyrazol-1-yl]phenyl}-N,4-dimethyl-4,5-dihydro-3H-2,3-benzodiazepine-3-carboxamide]	30 nM	630 nM	–	180 nM	–	–	–	–	–	–
CNC(=O)N1N=C(c2ccc(-n3nc(-c4ccccn4)cc3C3CC3)cc2)c2cc(OC)ccc2C[C@@H]1C [Example 28, (4S)-1-{4-[5-cyclopropyl-3-(pyridin-2-yl)-1H-pyrazol-1-yl]phenyl}-8-methoxy-N,4-dimethyl-4,5-dihydro-3H-2,3-benzodiazepine-3-carboxamide]	10 nM	40 nM	–	20 nM	–	30 nM	40 nM	20 nM	30 nM	40 nM

Source: US9890147B2 (BAYER PHARMA AKTIENGESELLSCHAFT, priority 2012, dated 2018)
